Values joined by “and” are separate entries in the source; they are usually repeats but may differ in a detail not shown here. Identical values can stand only once.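 Briefly, cells in 96-well plates were exposed to five compound concentrations for 48 h, and endpoints were estimated by linear interpolation. Abbreviation: GI50, concentration required for 50% inhibition of growth. Definition used: TGI = concentration required for complete inhibition of growth.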 Bounds are passed on as bounds.

What all share (test): NCI tumour cell line growth inhibition, 48 h
Assay [1] has as its system PC-3 prostate.
For assay [2], the system named is A498 renal.
Assay [3] deals with RPMI-8226 leukemia.
The test system of assay [4] is UO-31 renal.
For assay [5], the system named is A549 NSCLC.
For assay [6], the system named is SW-620 colon.
Assay [7] concerns ACHN renal.
Assay [8] concerns HCC-2998 colon.
Assay [9] has as its system MALME-3M melanoma.
For assay [10], the system named is SR leukemia.

As for `Cc1[nH]c2ncn(/N=C/c3ccccc3O)c(=N)c2c1Cc1ccccc1`, the TGI in [1] is 46.6 µM; in assay [2] it was above 100 µM; in [3], above 100 µM; in assay [4], above 100 µM; in assay [5], above 100 µM; in assay [6] it was above 100 µM. The TGI was above 100 µM in assay [7] and 88.7 µM in [8].
Turning to `C1CC2=C(C1)[Se]C(=C1Sc3nsnc3S1)[Se]2`, the TGI in [1], in assay [3], in assay [4], in assay [5], in [9] and in assay [6] was above 100 µM each time. Besides, the TGI in assay [7] and in assay [8] was above 100 µM each time.
As for `CN(C)CCNc1ccc(C(=O)NCCCN(C)CCCNC(=O)c2ccc(NCCN(C)C)c3c(=O)c4ccccc4[nH]c23)c2[nH]c3ccccc3c(=O)c12`, the TGI turned out to be 3.44 µM in assay [1]; 1.12 µM in assay [2]; 0.229 µM in assay [3]; 15.8 µM in assay [4]; 0.318 µM in [5]; 0.844 µM in [9]. Further, the TGI in [6] came out at 2.36 µM; in assay [7] it was 6.24 µM; in assay [8], 0.135 µM.
`CCC1(O)CC(OC2CC(N(C)C)C(OC3CC4OC5CC(=O)C(C)OC5OC4C(C)O3)C(C)O2)c2c(cc3c(c2O)C(=O)c2c(O)ccc(O)c2C3=O)C1C(=O)OC` (stereo not given): the TGI in [1] was 0.0576 µM and 0.15 µM; in assay [2], 0.016 µM; in assay [8], 0.0607 µM and 0.0199 µM and < 0.0465 µM. The GI50 in [2] is 0.00459 µM; in assay [7] it was 0.000823 µM; in assay [8] it was 0.021 µM and 0.01 µM.
`C=C1C(=O)OC2/C=C(\C)C(OC(C)=O)C3OC3C(C)(O)CC(OC(=O)/C(C)=C/C)C12` (stereo not given): the TGI turned out to be 23.2 µM in assay [10]; 32.1 µM in assay [2]; 28.2 µM in assay [3]; 23 µM in assay [4]; 42.6 µM in [5]; 21 µM in [9]. Moreover, the TGI came out at 1.89 µM in assay [6], 31.7 µM in assay [7] and 21.3 µM in assay [8].
As for `CCOC(=O)c1cnc(-n2[nH]c(C)c(CCO)c2=O)[nH]c1=O`, the TGI in [1], in assay [3], in assay [4], in assay [5], in assay [9] and in assay [6] was above 100 µM in each case. Further, the TGI in assay [7] and in assay [8] was above 100 µM each time.
For `COc1ccc(Cn2c(C)nc3c2C(=O)c2ccccc2C3=O)cc1`, the TGI is 10.4 µM in assay [10]; 57.4 µM in [4]; 36.1 µM in assay [5]; 19 µM in assay [9]; above 75 µM in assay [6]; 48.9 µM in assay [7]. In assay [8], this molecule yielded a TGI above 75 µM.
On to `CC1(C)O[C@H]2Cn3c(c(C#N)c4ccccc43)[C@H]2O1`, for which the TGI in assay [10], in assay [3], in assay [4], in assay [5], in assay [9] and in [7] was above 100 µM in each case. The TGI in assay [8] is above 100 µM.
With `CC12CC3C(CC1SCC(=O)O2)C3(C)C` (stereo not given), the TGI in assay [2], in assay [3], in [4], in assay [5], in assay [9] and in [7] was above 100 µM throughout. In [8], this molecule yielded a TGI above 100 µM.
On to `COc1cc(CCc2cccnc2)cc(OC)c1OC`, for which the TGI in assay [2], in [3], in assay [4], in [5], in [9] and in [6] was above 100 µM in each case. Also, in assay [7], the TGI is above 100 µM.
On to `COc1c2c(c3c(c1C1OC(C)[C@@H](C)O1)CC(C)(C)O3)C(=O)c1ccccc1C2=O` (stereo not given in full), for which the TGI in assay [10] was 68.2 µM; in assay [3], 52.2 µM; in assay [4], above 100 µM; in assay [5] it was above 100 µM; in assay [9] it was above 100 µM; in assay [6] it was 63.6 µM. The TGI in assay [7] and in assay [8] was above 100 µM each time.
With `c1ccc(CNC2CC(NCc3ccccn3)CC(NCc3ccccn3)C2)nc1` (stereo not given), the GI50 is 2.24 µM and 4.59 µM and 2.02 µM in assay [1]; 2.06 µM in [2]; 2.96 µM and 6.93 µM and 3.51 µM in assay [3]. In addition, the TGI in assay [1] is 5.68 µM and 8.75 µM and 3.98 µM; in assay [2], 3.31 µM and 6.25 µM and 3.51 µM; in assay [3], 9.64 µM and 25 µM and 13.5 µM; in [4], 70.8 µM and > 25 µM and > 100 µM; in [5], 6.47 µM and 6.12 µM; in assay [9], 10.4 µM and 8.6 µM and 15.8 µM. Besides, the TGI is 41.7 µM and 25 µM and 32.9 µM in assay [6]; 47.3 µM and 25 µM and 35.7 µM in assay [7]; 3.72 µM in [8].
As for `CC(=O)OCC1OC(Nc2[nH]c(=O)n(C)c(=O)c2-c2csc(N)n2)C(OC(C)=O)C(OC(C)=O)C1OC(C)=O` (stereo not given), the TGI in [10], in assay [2], in assay [3], in assay [4], in assay [5] and in assay [9] was above 100 µM in each case. The TGI in [6] and in assay [7] was above 100 µM in each case.
`Cc1nc2c(=S)[nH]ncc2[nH]1`: the TGI in [1], in [2], in assay [3], in assay [4], in [5] and in [9] was above 100 µM throughout. In addition, the TGI in assay [6], in [7] and in assay [8] was above 100 µM in each case.
With `COc1ccc(-c2nc(N)c(C#N)c3c2CCS(=O)(=O)c2ccc(C)cc2-3)cc1OC`, the TGI is above 100 µM in assay [1]; 62.5 µM in assay [2]; above 100 µM in assay [4]; above 100 µM in [5]; above 100 µM in assay [9]; above 100 µM in assay [6]. The TGI in assay [7] and in [8] was above 100 µM each time.
As to `COC(=O)[C@H](Cc1ccccc1)NC(=O)c1ccc(CNC(=O)/C=C/c2ccc(-c3ccccc3)cc2)cc1`, the TGI in assay [1], in [2], in [3], in [4], in assay [5] and in assay [9] was above 100 µM each time. Further, the TGI in [6], in [7] and in assay [8] was above 100 µM each time.

These data come from PubChem BioAssay (NCI).
